Experimental findings from patent US20230405014A1, “USE OF AN IRAK4 MODULATOR FOR GENE THERAPY” (Genzyme Corporation, priority 2022, published 2023) are described below.

SMILES strings stand for the structures.

Data set [1] deals with primary human monocytic dendritic cells. In words: Cell viability of dendritic cells (Live/Dead staining, flow cytometry). To be noted: AAV at MOI 1e5 and KT-474 co-treated, 24 hours, at doses tested, three donors (FIG. 3). Type of data set: cell-based. (Flow cytometry measures light scatter and fluorescence of single cells or particles in a stream.)
In data set [2] the test system is human monocytic dendritic cells. In words: Cytokine release from human monocytic dendritic cells co-treated with AAV and KT-474 (Luminex). As to conditions: co-treatment with AAV at MOI 1e5, 24 hours, all KT-474 doses. Type of data set: cell-based. As to the method:
Preparation of Peripheral Blood Mononuclear Cells. Blood from leukopaks (Stem cell technologies) from different donors was decanted into 50 mL tubes and Dulbecco's phosphate buffered saline (DPBS) was added at a 1:1 ratio. The blood plus DBPS mix was gently pipetted into a separate 50 mL tube containing 15 mL Ficoll (GE17-5442-02) to ensure no mixing of the blood and Ficoll phases. The mixture was centrifuged at 2000 RPM for 25 minutes at room temperature (9 acceleration and no braking). The buffy coat containing the peripheral blood mononuclear cells (PBMCs) was collected, transferred to a new tube, and centrifuged for five minutes at 400 RCF. PBMCs were washed three times with phosphate buffered saline (PBS) containing 1% fetal bovine serum (FBS) or fetal calf serum (FCS) and counted.
Isolation of Monocytes. CD14+ monocytes were isolated from the PBMCs using CD14 MicroBeads following the manufacturer's protocol (Miltenyi Biotech, Germany, order no. 130-050-201, protocol available online world wide web miltenyibiotec.com/upload/assets/IM0001260.PDF). Briefly, PBMCs were incubated with […] CD14 MicroBeads per 10^7 total cells for 15 minutes at 2-8° C. PBMCs were applied onto a magnetic column (Miltenyi; world wide web miltenyibiotec.com/US-en/products/ls-columns.html #130-042-401) and unlabeled cells were allowed to pass through. After washing the column three times, the column was removed from the magnetic separator, (Miltneyi; world wide web miltenyibiotec.com/US-en/products/quadromacs-separator-and-starting-kits.html #130-091-051) placed on a collection tube, and magnetically labeled CD14+ monocytes were flushed out by pushing a plunger into the column.
Differentiation of Monocytes. […]
rAAV Production and Titration. rAAV vectors were produced using a standard triple transfection method (Sena-Esteves and Gao, Cold Spring Harb Protoc; doi:10.1101/pdb.top095513, 2020). All serotypes evaluated encode the same GFP transgene. Viruses were purified by cesium chloride ultracentrifugation and titrated using both silver staining and quantitative polymerase chain reaction (qPCR). […]

Data set [3] concerns transgene LacZ specific CD8 T cells. In words: In vivo mouse model of AAV-induced immune response, LacZ tetramer staining. To be noted: KT-474 in chow 100 mg/kg from 15 days prior to intramuscular AAV. Set-up: species or system C57BL/6J mice. As to the method: In vivo mice experiments: C57BL/6J mice were purchased from Jackson Laboratories. 6-8-week male mice were divided into 3 groups—PBS group, AAV group and AAV+KT474 group all groups with 6 mice each. […] PBS group mice were injected intramuscularly with 100 ul PBS, AAV group was injected intramuscularly with 1e11 vg per quadricep muscle of both legs, 100 ul volume. AAV capsid used in the study had LacZ transgene. All animal experiments were conducted in accordance with the Institutional Animal Care and Use Committees at Sanofi, Framingham. Submandibular bleeds were performed weekly, and necropsy was performed three weeks post AAV injection.
The PBS and AAV only groups were fed regular chow and were bled on day 14 and necorpsied on day 21.
PBMC isolation 120 ul blood was collected in K2EDTA coated tubes. The blood was mixed with DBPS at 1:1 ration and pipetted into a separate tube containing Ficoll (GE17-5442-02) to ensure no mixing of the blood and Ficoll phases. The mixture was centrifuged at 2000 RPM for 25 minutes at room temperature (9 acceleration and no braking). […] PBMCs were washed three times with phosphate buffered saline (PBS) containing 1% fetal bovine serum (FBS) or fetal calf serum (FCS) and counted. The PBMC cells thus obtained were stained with different antibodies to quantify percentage of different immune cell subsets in peripheral blood. […]

`Cn1c(=O)n(C2CCC(=O)NC2=O)c2cccc(C#CCOC3CCN(C[C@H]4CC[C@H](n5cc(NC(=O)c6cnn7ccc(N8C[C@H]9C[C@@H]8CO9)nc67)c(C(F)F)n5)CC4)CC3)c21` (stereo partly drawn) [KT-474]: in data set [1], the “cellular toxicity (cell viability)” value is recorded as “no cellular toxicity”. Besides, in data set [2] (three donors (FIG. 2A)), the “AAV-induced secretion of IL1b” value was “blocked”. The “AAV-induced secretion of IL6” value in data set [2] (three donors (FIG. 2B)) is given as “blocked”. The “AAV-induced secretion of TNFa” value in data set [2] (three donors (FIG. 2C)) is on record as “blocked”. Also, the “LacZ tetramer positive (transgene LacZ specific) CD8 T cells in PBMCs” value in data set [3] (peripheral blood, 14 days post AAV injection (FIG. 6A)) was “reduced significantly”. In data set [3] (splenocytes, 21 days post AAV injection (FIG. 6B)), the “LacZ tetramer positive (transgene LacZ specific) CD8 T cells in spleen” value was “reduced significantly”.
